Test: Dispersibility and solubility in water, solvents and media
Type: physicochemical
Conditions: for solubility in cell culture: cell culture environments (primary cultures)
Description: 50 mg of kneaded complex added to 10 ml H2O and shaken for 2 hours.
In FIG. 10, the image on the right is 5 mg of CoQ10 added to 10 ml H2O and shaken for 2 hours.
Paired corneas were supplemented with 10 μM ubiquinol (Fuller et al., 2006) (USP analytical standard, Sigma Aldrich, St. Louis, Mo.), 100 μM palmitate-BSA (Pfleger et al., 2015) (Agilent, Santa Clara, Calif.), or diluent only for 5 days, such that one cornea from a donor received treatment while its mate from the same donor was a control. Concentrations were chosen based on previously published studies (Fuller et al., 2006; Pfleger et al., 2015). Diluents were chosen based on supplement solubility. Although several diluents were tried for ubiquinol (water, Optisol-GS, DMSO and ethanol), ethanol was chosen based on its ability to solubilize ubiquinol most successfully. No complexing agents were used to solubilize ubiquinol. Following the 5 days of storage with supplementation, tissues were processed for metabolic and cell viability assays as described below.
Due to its long hydrocarbon side chain, ubiquinol is difficult to solubilize in biocompatible solvents. In this series, several attempts were made to bring this lipid-soluble molecule into aqueous solution. First, ubiquinol was attempted to be dissolved using polar […] known to be biocompatible with CECs (Optisol-GS, water) based on the goal of achieving a high bioavailability for clinical applications. […] Next two organic polar […] solvents, DMSO and absolute ethanol, were tested. DMSO commonly is used as a solvent in cell biology and biochemistry, and both DMSO and ethanol can solubilize hydrocarbons. […] In addition to its lipophilicity, native ubiquinol is also unstable. Although not encountered in this series ubiquinol oxidizes in the presence of oxygen and light and turns yellow, indicating the formation of its oxidized form, ubiquinone. It is therefore necessary to improve the solubility and handleability of ubiquinol for future validations of its effects on oxidative stress related pathways.

Substance: ubiquinol
- solubility in Optisol-GS storage media after dissolving in ethanol: appeared to remain in solution
- dispersibility in water (50 mg kneaded complex or 5 mg CoQ10 in 10 ml H2O, shaken for 2 hours): prefers to accumulate at the air-water interface or to adhere to the glass container
- solubility in cell culture: precipitated out of solution
- solubility in cell culture (listed as coQ10): not soluble
- solubility in DMSO (despite heating the solution): precipitated in DMSO
- solubility in Optisol-GS, water (even after heating): precipitated out of these solutions
- solubility in absolute ethanol (heated to 37° C., precipitates if not poured immediately into storage media): dissolved

Reference: patent US20220249399A1, “COMPOSITION COMPRISING AN ANTI-OXIDANT TO PRESERVE CORNEAL TISSUE” (University of lowa Research Foundation, priority 2019, published 2022)
